Results: US9403820B2, “Kinase inhibitor polymorphs” (INTELLIKINE LLC, priority 2011, dated 2016)
Where a name gives a salt, the structure may show the parent alone.

Key:
Assay type in all cases: physicochemical
[1] = Solid form stability on vacuum drying (XRPD)
Experimental: HCl Pattern 1: Formula I free base (ca. 500 mg) was suspended in nitromethane (50 volumes, 25 mL) with stirring. HCl (1M in THF; 1.2 equivalents; 1.65 mL) was added. The suspension was subjected to heating/cooling cycles between RT and 50° C., 4 hours at each condition for one week. […] The solid was isolated by vacuum filtration and dried under vacuum at RT for 16 hours.

[2] = Stability at 40° C./75% RH (XRPD after storage); conditions: 3 weeks storage, by XRPD
[3] = GVS (gravimetric vapor sorption) moisture sorption isotherm
Experimental: Sorption isotherms were obtained using a SMS DVS Intrinsic moisture sorption analyser, controlled by DVS Intrinsic Control software v1.0.0.30. The sample temperature was maintained at 25° C. by the instrument controls. The humidity was controlled by mixing streams of dry and wet nitrogen, with a total flow rate of 200 mL.min−1 The relative humidity was measured by a calibrated Rotronic probe (dynamic range of 1.0-100% RH), located near the sample. The weight change (mass relaxation) of the sample as a function of % RH was constantly monitored by the microbalance (accuracy±0.005 mg). Approximately 5-20 mg of sample was placed in a tared mesh stainless steel basket under ambient conditions. The sample was loaded and unloaded at 40% RH and 25° C. (typical room conditions). A moisture sorption isotherm was performed as outlined below (2 scans giving 1 complete cycle). The standard isotherm was performed at 25° C. at 10% RH intervals over a 0-90% RH range. Data analysis was undertaken in Microsoft Excel using DVS Analysis Suite v6.0.0.7.

[4] = VH-XRPD (variable humidity XRPD) form stability
Text: Variable humidity XRPD analysis was undertaken in order to determine if two hydrated species were present. […] On increasing the humidity, the material started to re-hydrate from 13% RH, and reverted completely back to HCl Pattern 2 by 45% RH. […] Only one XRPD pattern was observed upon dehydration and it is not possible to conclude whether this is a totally anhydrous or partially hydrated form.

| SMILES | Form stability on drying under vacuum at RT for 16 hours (XRPD) [1] | Stability at 40° C./75% RH [2] | GVS reversible uptake ([3]; between 40-90% RH, 25° C.) | GVS: RH to which the form appeared stable ([3]; dehydration observed below, rehydration by 40%) | GVS water content at the end of the experiment ([3]; end of GVS experiment) | GVS water content at the end of the experiment, equivalents ([3]; end of GVS experiment) | VH-XRPD: RH below which the material starts to change ([4]; full conversion to HCl Pattern 3 at 0.5% RH) | VH-XRPD: RH to which the form is stable ([4]; then starts to change to HCl Pattern 3) |
| --- | --- | --- | --- | --- | --- | --- | --- | --- |
| Nc1nc2cc(-c3ccc4ncc(C(=O)N5CCOCC5)n4c3)ccc2o1 [HCl Pattern 1] | partially reverted to the free base |  |  |  |  |  |  |  |
| Nc1nc2cc(-c3ccc4ncc(C(=O)N5CCOCC5)n4c3)ccc2o1 [HCl Pattern 2] |  | No significant changes observed by XRPD after 3 weeks storage | Reversible uptake of ca. 6 wt % between 40-90% RH. | ≥ 30 % RH | 10.6 wt % | 3.0 eqs | The material starts to change below 25% RH, with full conversion to HCl | ≥ 14 % RH |
